According to paper PMC6770071, “XIAP as a Target of New Small Organic Natural Molecules Inducing Human Cancer Cell Death” (Cancers, 2019):
In brackets after ≈: the same amount, converted by molar mass.

How the values were obtained:
U373 cells [1] = assay: MTT cell viability assay, U373 cells; assay type: cell-based, human; conditions: for IC50: Homo sapiens, U373 MG, MTT, 24 h, read-out: IC50 (μg/mL) U373 Cells
Method: (§1) Human U373 glioma, MCF7 breast cancer, A549 lung cancer and PC-3 prostate cancer cells were grown in Dulbecco’s Modified Eagle Medium (DMEM), supplemented with 10% foetal bovine serum, 2 mM glutamine, 100 U/mL penicillin/streptomycin, at 37 °C in a humidified atmosphere containing 5% CO2 (logarithmic growth phase, routine passages every 3 days). The human breast epithelial cell line MCF10 was cultured in DMEM/F12 Ham’s Mixture supplemented with 5% horse serum, epithelial growth factor 20 ng/mL, insulin 10 μg/mL, hydrocortisone 0.5 mg/mL, cholera toxin 100 ng/mL, and 100 U/mL penicillin/streptomycin. HUVEC were grown in EGM-2 Endothelial Cell Growth Medium-2 BulletKit (Lonza, Basel, Switzerland), according to the manufacturer’s protocol.
(§2) U373, MCF7, A549, PC-3, HUVEC, and MCF10 cell viability was determined by MTT assay using published protocols. MTT absorbance was quantified spectrophotometrically using a Glomax Multi Detection System microplate reader (Promega, Milano, Italy).
Statistical significance of raw data between the groups in each experiment was evaluated using unpaired Student’s t-test (single comparisons) or one-way ANOVA followed by the Newman-Keuls post-test (multiple comparisons). The IC50 and Emax concentration were determined by non-linear regression curve analysis of the concentration-effect responses. Potency values among concentration-response curves were compared with the F-test. Data belonging from different experiments were represented and averaged in the same graph. The GraphPad Prism software package (GraphPad Software, San Diego, CA, USA) was used. The results were expressed as means ± standard error of mean (SEM) of the indicated n values.

MCF7 cells [2] = assay: TMRM mitochondrial membrane potential analysis, MCF7 cells; assay type: cell-based, human; conditions: gibbilimbol B/eriopodol A 30 µg/mL, erioquinol 10 µg/mL; for TMRM fluorescence (mitochondria membrane potential): MCF7, increasing time; for time to full response of TMRM fluorescence decrease: MCF7
Method: Using published protocols, mitochondria of MCF7 and U373 cells were labeled using TMRM, a voltage-sensitive cationic lipophilic dye, partitioning and accumulating in the mitochondrial matrix based upon the Nernst equation. After treatments, cells were trypsinised, counted and incubated with 100 nM TMRM for 30 min at 37 °C. Fluorescence was measured by using a Glomax Multi Detection System microplate reader (Promega), excitation wavelength: 525 nm; emission wavelength: 580–640 nm). After background subtraction, the data were normalised on cell number.

U373 cells [3] = assay: ROS detection with DCFH-DA, U373 cells; assay type: cell-based, human; conditions: U373, 6 h; gibbilimbol B/eriopodol A 30 µg/mL, erioquinol 10 µg/mL
Method: MCF7 or U373 cells cultured in 120-mm coverslips were exposed to 30 µM DCFH-DA (0.1 M PB, pH 7.4) and fixed in 4% paraformaldehyde for 20 min. For fluorescence detection, coverslips were mounted on glass slides and observed with a laser-scanning confocal microscope (TCS SP8 System and Application suite X, Leica Microsystems). DAPI and fluorescein phalloidin (nuclei and cytoskeleton detection, respectively) staining was also used.

[4] = test system: human umbilical vein endothelial cells (HUVEC); assay: MTT cell viability assay, HUVEC; assay type: cell-based; conditions: 24 h
Method: as §1, with “HUVEC were grown in EGM-2 Endothelial Cell Growth Medium-2 BulletKit (Lonza, Basel, Switzerland), according to the manufacturer’s protocol.” left out
as §2
Statistical significance of raw data between the groups in each experiment was evaluated using unpaired Student’s t-test (single comparisons) or one-way ANOVA followed by the Newman-Keuls post-test (multiple comparisons). The IC50 and Emax concentration were determined by non-linear regression curve analysis of the concentration-effect responses. […] The results were expressed as means ± standard error of mean (SEM) of the indicated n values.

MCF7 cells [5] = assay: TUNEL assay; assay type: cell-based, human; conditions: MCF7, 12 h; gibbilimbol B/eriopodol A 30 µg/mL, erioquinol 10 µg/mL
Method: Using published protocols, MCF7 or U373 cells cultured in 120-mm coverslips were fixed in 4% paraformaldehyde in 0.1 M phosphate buffer (PB), pH 7.4, for 10 min. The TUNEL method (DeadEnd Fluorometric TUNEL System, Promega) was used to assay apoptosis, according to the manufacturer’s protocol. DAPI (nuclei detection) staining was also performed.

caspase 9 and 7 = assay: Cleaved-caspase 9 and 7 western blot / immunofluorescence in MCF7 cells; assay type: cell-based, human; conditions: gibbilimbol B/eriopodol A 30 µg/mL, erioquinol 10 µg/mL; for cleaved-caspase 7 staining, immunofluorescence: MCF7, 3 and 6 h; for caspase activation, western blot: MCF7, 3 h and 6 h
Method: Using published protocols, MCF7 or U373 cells cultured in 120-mm coverslips were fixed in 4% paraformaldehyde in 0.1 M PB, pH 7.4, for 10 min. Cells were pre-incubated for 1 h min with 5% of normal goat serum (Life Technologies, Monza, Italy) in 0.1 M PB (pH 7.4) containing 0.1% Triton X-100, before overnight incubation with the rabbit monoclonal anti-cleaved caspase 7 (Cell Signaling Technology, Danvers, MA, USA). In double-label immunofluorescence experiments, the mouse monoclonal anti-cytochrome c primary antibody (Cell Signaling Technology) was used in conjunction with the rabbit monoclonal primary antibody directed to COX IV (Cell Signaling Technology). For fluorescence detection, coverslips were stained with the appropriate Alexa Fluor secondary antibodies (Life Technologies) and mounted on glass slides in a ProLong Gold Antifade Mountant (Life Technologies). DAPI and/or fluorescein phalloidin (cytoskeleton detection) staining was also used. Cells were analysed with a DMI4000 B automated inverted microscope equipped with a DCF310 digital camera (Leica Microsystems, Wetzlar, Germany). When indicated, confocal imaging was performed with a TCS SP8 System (Leica Microsystems). Image acquisitions were controlled by the Leica Application Suite X.
Using published protocols, MCF7 and MCF10 cells were homogenised in RIPA lysis buffer, supplemented with a cocktail of protease inhibitors (cOmplete; Roche Diagnostics, Milano, Italy). Equal amounts of proteins were separated by 4–20% SDS-polyacrylamide gel electrophoresis (Criterion TGX Stain-free precast gels and Criterion Cell system; Bio-Rad, Hercules, CA, USA) and transferred onto nitrocellulose membrane using a Bio-Rad Trans-Blot Turbo System. When indicated, the membranes were probed using the rabbit monoclonal anti-cleaved caspase 7 and anti-XIAP (Cell Signaling Technology) primary antibodies. After the incubation with the appropriate horseradish-peroxidase-conjugated secondary antibody (Cell Signaling Technology), bands were visualised using the Clarity Western ECL substrate with a ChemiDoc MP imaging system (Bio-Rad). To monitor for potential artefacts in loading and transfer among samples in different lanes, the blots were routinely treated with the Restore Western Blot Stripping Buffer (ThermoFisher Scientific) and re-probed with the goat anti-Lactate dehydrogenase (LDH)-A (Santa Cruz Biotechnology) and the mouse anti-vinculin primary antibodies. The stain-free gel was used as loading control as well. When appropriated, bands were quantified for densitometry using the Bio-Rad Image Lab software.

`CCCCCC/C=C\CCC1(O)C=CC(=O)C=C1` [Erioquinol, (Z)-4-(dec-3′-enyl)-4-hydroxycyclohexa-2,5-dien-1-one] was tested, and the IC50 (U373 cells [1]) was 1.78 µg/mL (≈ 7.17 µM), the “concentration-dependent inhibition of MTT absorbance with 50 µM necrostatin-1 and 10 µM ferrostatin-1” value (U373 cells [1]; U373, 24 h, 2 h pre-treatment with inhibitors) was “did not change” and the “TMRM fluorescence (mitochondria membrane potential)” value (MCF7 cells [2]) was “comparable decrease in TMRM fluorescence vs. control”. For the same molecule, the “time to full response of TMRM fluorescence decrease” value (MCF7 cells [2]) was ≤ 1 h, the “ROS (DCFH-DA staining)” value (U373 cells [3]) was “marked accumulation of ROS” and the IC50 [4] was 0.36 µg/mL (≈ 1.45 µM). The “TUNEL staining (DNA fragmentation)” value (MCF7 cells [5]) was “DNA fragmented cells were few”, the “cleaved-caspase 7 staining, immunofluorescence” value (caspase 9 and 7) was “positive cells were absent” and the “caspase activation, western blot” value (caspase 9 and 7) was “did not display any sign of caspase 7 activity”.

With `CCCCCC/C=C/CCc1ccc(O)cc1` [Gibbilimbol B, (E)-4-(dec-3′-enyl)phenol] the IC50 (U373 cells [1]) was 16.8 µg/mL (≈ 72.3 µM), the “TMRM fluorescence (mitochondria membrane potential)” value (MCF7 cells [2]) was “comparable decrease in TMRM fluorescence vs. control” and the “time to full response of TMRM fluorescence decrease” value (MCF7 cells [2]) was ≤ 1 h. For the same molecule, the “ROS (DCFH-DA staining)” value (U373 cells [3]) was “absent”, the IC50 [4] was 11.5 µg/mL (≈ 49.4 µM) and the “TUNEL staining (DNA fragmentation)” value (MCF7 cells [5]) was “inter-nucleosomal degradation of genomic DNA typical of late apoptotic cells”. For the same molecule, the “cleaved-caspase 7 staining, immunofluorescence” value (caspase 9 and 7) was “intensive cleaved-caspase 7 staining” and the “caspase activation, western blot” value (caspase 9 and 7) was “activation of caspase 9 and 7”.
